Patent publication US20130287688A1, “NOVEL COMPOSITIONS AND USES OF ANTI-HYPERTENSION AGENTS FOR CANCER THERAPY” (XTUIT PHARMACEUTICALS, INC., priority 2010, published 2013)

Experiments:
[1] = test system: Pan-02 pancreatic tumors; test: Solid stress (tumor opening technique); design: species or system C57BL/6 mouse; details: mouse, in vivo
Text: FIG. 25 is a bar graph showing that angiotensin inhibitors decrease stress in multiple tumor models. Solid stress levels in tumors after angiotensin inhibition using losartan are shown. […] Animal numbers n=10-11 (4T1 stress), n=4-8 (Pan-02 stress).
The mechanism responsible for the increase in tumor vessel perfusion by losartan was investigated. Desmoplasia, high stromal cell and matrix density, is a major contributor to the solid stress accumulation that compresses vessels (Stylianopoulos T, et al., Growth-induced mechanical stress in murine and human tumors: causes, consequences and remedies. under review. 2012). […] Moreover, losartan decreased collagen I concentration, measured based on staining intensity, in E0771 and AK4.4 tumors (FIGS. 24B-24C). […] Next, solid stress in these tumors was measured using recently established technique described in Stylianopoulos T, et al., Growth-induced mechanical stress in murine and human tumors: causes, consequences and remedies. under review. […]
Solid stress: Solid stress was measured using the tumor opening technique as described previously (Stylianopoulos T, et al., Growth-induced mechanical stress in murine and human tumors: causes, consequences and remedies. under review. 2012). […] Subsequently, each tumor was excised, washed with Hanks' Balanced Salt Solution (HBSS) and its three dimensions were measured. […]

[2] = test system: Mu89 tumors; test: Virus treatment and tumor growth delay; format: in vivo, SCID mice
Experimental: (§1) Each arm (control and treated) was subsequently divided into HSV treated and non-HSV treated groups. Tumors that had reached 60 mm^3 after two weeks were selected for i.t. HSV injections. Tumors were treated with 10 μl i.t. injections of either PBS or 2.5×10^5 transducing units (t.u.) of oncolytic HSV MGH2 (gift from E. Antonio Chiocca, Ohio State University, Columbus, Ohio). Two i.t. injections of oncolytic HSV separated by 24 hrs were administered. The injections were done with a Harvard Apparatus Standard Pump 22 infusion/withdraw syringe pump system (Holliston, Mass.) at a flow rate of 4 μl/min. Tumors were measured every 2 to 3 days. Tumor volume was estimated as: V=AB^2/2, where V is the tumor volume; A and B are the maximum and minimum diameters of the tumor as measured with calipers.

[3] = test system: HSTS26T tumors; test: Virus treatment and tumor growth delay; format: in vivo, SCID mice
Experimental: as §1

[4] = test system: E0771 breast tumors; test: Tumor matrix level histology (collagen I); design: species or system SCID mouse; details: mouse, in vivo
Experimental: Collagen levels were used as a metric of matrix production as described in Diop-Frimpong et al., Proc Nall Acad Sci USA. […] Next, solid stress in these tumors was measured using recently established technique described in Stylianopoulos T, et al., Growth-induced mechanical stress in murine and human tumors: causes, consequences and remedies. under review.
Vessel perfusion, matrix level, and hypoxia histology: For breast tumors, mice bearing orthotopic E0771 were split into treatment groups, time-matched for time after implantation and size-matched for tumor volume at this time (−100 mm^3). For pancreatic tumors, mice bearing orthotopic AK4.4 were split into treatment groups, size-matched for tumor volume (˜22 mm^3), 6 days after implantation. […] On the day of the last treatment, mice were slowly (−2 min) injected with 100 μL of 1 mg/mL biotinylated lectin (Vector Labs), administered retro-orbitally 5 min prior to tumor removal. For hypoxia studies, the mice were also injected with 60 mg/kg of 10 mg/mL pimonidazole 1 hr prior to tumor removal. […] For matrix staining, collagen I was detected using the LF-67 antibody provided by Dr. Larry Fisher (National Institute of Dental Research, Bethesda, Md.).
Histological image analysis: Eight random images (four interior, four periphery) at 20× magnification were taken from each slide using a confocal microscope (Olympus). […] For perfusion, the number of vessels counted by this program with colocalization of lectin and CD31 staining was divided by the number of vessels counted with CD31 staining. For vessel metrics, including diameter and density, the program determined the average size of all counted vessels and their length, as well as the count per area Images of collagen I stained sections were analyzed based on the area fraction of positive staining and on the average staining intensity (concentration) in each image. […] Images of hypoxia staining with pimonidazole were similarly analyzed for the area fraction of positive staining, counting the fraction of pixels above a threshold based on background intensity.

[5] = losartan two weeks before i.t. injection of HSV

For `CCCCc1nc(Cl)c(CO)n1Cc1ccc(-c2ccccc2-c2nn[nH]n2)cc1` [losartan], the solid stress [1] was “reduces solid stress”, the tumor growth rate ([2]; losartan alone) was “did not affect” and the “tumor size relative to the starting treatment size” value ([2]; losartan and HSV, 4 weeks after the virus injection, all tumors) was 3 fold. For the same compound, the tumor growth [2, 5] was “significantly delayed the growth”, the tumor growth rate ([3]; losartan alone) was “did not affect” and the “mice whose tumor volume remained stable for up to 9 weeks” value ([3]; losartan and HSV) was 50%. For the same compound, the tumor growth [3, 5] was “significantly delayed the growth”, the “concentration of collagen I (staining intensity)” value [4] was “reduces” and the “matrix production, collagen I area fraction” value [4] was “decreases”.
